Data from ChEMBL document CHEMBL1201862, “PubChem BioAssay data set” (2004).
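Step 1: Grow cells in 96-well plates. Step 2: Expose to compound for 48 hours at 5 concentrations. Step 3: Interpolate endpoints linearly; if unreached, use highest concentration. The concentration for 50% growth inhibition is given as GI50.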 Activity calls are given as the source filed them. Rule as the data show it: active = GI50 up to about 1.1 µM and inactive = higher.

Key:
Experiment in all cases: NCI anticancer screen, dose series, 48 h
[1] = tested on: A498
[2] = tested on: A549
[3] = tested on: SK-OV-3
[4] = tested on: TK-10
[5] = tested on: KM12
[6] = tested on: OVCAR-3
[7] = tested on: OVCAR-4
[8] = tested on: CAKI-1
[9] = tested on: K562
[10] = tested on: OVCAR-5
[11] = tested on: COLO 205
[12] = tested on: SF-539
[13] = tested on: U-251
[14] = tested on: MCF7
[15] = tested on: LXFL 529
[16] = tested on: MDA-MB-435
[17] = tested on: NCI-H522
[18] = tested on: HT-29
[19] = tested on: Malme-3M
[20] = tested on: BT-549

For `CC1=NN(C(=O)c2ccccc2O)C(=O)/C1=C/c1cccc([N+](=O)[O-])c1`, the GI50 [1] was 0.164 µM (active), the GI50 [2] was 0.448 µM (active) and the GI50 [3] was 15.3 µM (inactive). For the same compound, the GI50 [4] was 15.6 µM (inactive), the GI50 [5] was 0.703 µM (active) and the GI50 [6] was 1.87 µM (inactive). For the same compound, the GI50 [7] was 3.55 µM (inactive), the GI50 [8] was 2.2 µM (inactive) and the GI50 [9] was 0.364 µM (active). The GI50 [10] was 10.4 µM (inactive), the GI50 [11] was 29 µM (inactive) and the GI50 [12] was 0.377 µM (active). For the same compound, the GI50 [13] was 0.512 µM (active), the GI50 [14] was 2.52 µM (inactive) and the GI50 [15] was 0.451 µM (active). For the same compound, the GI50 [16] was 0.451 µM (active), the GI50 [17] was 3.99 µM (inactive) and the GI50 [18] was 38.7 µM (inactive). For the same compound, the GI50 [19] was 21.1 µM (inactive).
With `C=C(C)[C@@H]1CC=C(CO)CC1` [PERILLYL ALCOHOL] the GI50 [1] was 548 µM (inactive), the GI50 [2] was 126 µM (inactive) and the GI50 [3] was 748 µM (inactive). For the same compound, the GI50 [4] was 324 µM (inactive), the GI50 [5] was 316 µM (inactive) and the GI50 [6] was 150 µM (inactive). The GI50 [7] was 515 µM (inactive), the GI50 [20] was > 10 µM (inactive) and the GI50 [8] was > 10 µM (inactive). For the same compound, the GI50 [9] was 30.5 µM (inactive), the GI50 [10] was 169 µM (inactive) and the GI50 [11] was 199 µM (inactive). For the same compound, the GI50 [12] was 501 µM (inactive), the GI50 [13] was 125 µM (inactive) and the GI50 [14] was > 10 µM (inactive). For the same compound, the GI50 [15] was 668 µM (inactive), the GI50 [16] was > 10 µM (inactive) and the GI50 [17] was 344 µM (inactive). For the same compound, the GI50 [18] was 136 µM (inactive) and the GI50 [19] was 324 µM (inactive).
With `CN(C)CC1CCC(CN(C)C)C(=O)C1=O` (stereo unspecified) the GI50 [1] was 16.8 µM (inactive), the GI50 [2] was 10.9 µM (inactive) and the GI50 [3] was 24 µM (inactive). For the same compound, the GI50 [4] was 3.6 µM (inactive), the GI50 [5] was 14.2 µM (inactive) and the GI50 [6] was 2.31 µM (inactive). For the same compound, the GI50 [7] was 7.8 µM (inactive), the GI50 [20] was 8.67 µM (inactive) and the GI50 [8] was 1.99 µM (inactive). For the same compound, the GI50 [9] was 2.27 µM (inactive), the GI50 [10] was 16.5 µM (inactive) and the GI50 [11] was 1.79 µM (inactive). The GI50 [12] was 7.18 µM (inactive), the GI50 [13] was 12.7 µM (inactive) and the GI50 [14] was 2.46 µM (inactive). For the same compound, the GI50 [15] was 1.67 µM (inactive), the GI50 [16] was 17.8 µM (inactive) and the GI50 [17] was 0.946 µM (active). For the same compound, the GI50 [18] was 7.64 µM (inactive) and the GI50 [19] was 1.92 µM (inactive).
In the case of `COC(=O)/C(=N\NC(N)=S)C(C(=O)OC)C(=O)C(=O)Nc1ccc(C)cc1` (stereo unspecified), the GI50 [1] is reported as > 100 µM (inactive), the GI50 [2] is reported as > 100 µM (inactive) and the GI50 [3] is reported as > 100 µM (inactive). The GI50 [4] was > 100 µM (inactive), the GI50 [5] was > 100 µM (inactive) and the GI50 [6] was > 100 µM (inactive). The GI50 [7] was > 100 µM (inactive), the GI50 [8] was > 100 µM (inactive) and the GI50 [9] was > 100 µM (inactive). The GI50 [10] was > 100 µM (inactive), the GI50 [11] was > 100 µM (inactive) and the GI50 [12] was > 100 µM (inactive). The GI50 [13] was > 100 µM (inactive), the GI50 [15] was > 100 µM (inactive) and the GI50 [17] was > 100 µM (inactive). For the same compound, the GI50 [18] was > 100 µM (inactive) and the GI50 [19] was > 100 µM (inactive).
